Laboratory results published in article PMC7723077, “Spatial Profiles of Phosphate in Roots Indicate Developmental Control of Uptake, Recycling, and Sequestration” (Plant Physiology, 2020).

Target: T1, cpFLIPPi-5.3m
T1 construct: gene PiBP
Conditions: in vivo, root epidermal cells of transition zone; injection buffer 50 mM MOPS-KOH pH 7.3, 0.5 mM MgCl2, total K+ 75 mM

`O=P(O)(O)O` [Pi, inorganic phosphate] gave a Kd of 7.4 ± 1.7 mM.
